The source of these data is US20090203685A1, “ANTI-PROLIFERATIVE COMPOUNDS FROM A 3-ARYL-COUMARINE OR 3-ARYL-QUINOLIN-2-ONE AND USES THEREOF” (EOS (ETHICAL ONCOLOGY SCIENCE) S.P.A., priority 2006, published 2009).

A word on the viability: it is a per cent measure of how many cells are alive, often set against a control.

A short description of data set [1]: Viability (propidium iodide staining), U937. The note with it: human, U937 cells (myeloid), 500 nM. The format is cell-based. How it is done: Propidium iodide (PI) cannot normally cross the cell membrane; it is thus excluded by viable cells but not from dying or dead cells, having a damaged membrane, where it intercalates into double-stranded nucleic acids and fluoresces when excited at 488 nm.
The cells are pelleted by gentle centrifugation 1200 rpm/5 min/4° C., then the supernatant is discarded and replaced by 1 mL of fresh medium. One hundred microliters of propidium iodide (40 μg/mL) are added to 400 μL of the cell suspension in a FACS tube and viability is measured by flow cytometry as the percentage of cells whose fluorescence recorded on FL-3 channel is comprised between 0 and 2.
(§1) Viability and cell cycle profile, tested with compound (01), at 500 nM: […]

In another data set the test system is Jurkat. Briefly: Cell cycle analysis, Jurkat. The format is cell-based. The settings on record: 500 nM. How it is done:
The cells are pelleted by gentle centrifugation 1200 rpm/5 min/4° C., then the supernatant is discarded and the cells are fixed with 1 mL of PBS/Ethanol 70% overnight at −20° C. The tubes are then centrifuged during 5 minutes at 1200 rpm and the supernatant is removed. The pellet is then re-suspended in 450 μL of PBS before 50 μL of RNAse (1 mg/mL) and 5 μL of propidium iodide (2 mg/mL) are added. Each tube is left 30 minutes at 37° C. and immediately analysed by flow cytometry after incubation.
A biparametric dot plot representation FL3 peak vs FL3 integer is plotted and the cells located on the diagonal are gated and analysed on a histogram representing the number of cells as a function of the FL3 peak.
To assess the relative position of cursors defining relative proportion of cells in subG1, G1, S or G2 phase of the cell cycle, G1 and G2 peaks are to be defined first:
The G1 peak is defined as the major peak in absence of treatment (generally X=200);
The G2 peak is centered on the value which is twice the value of the G1 peak (generally X=400).
Cells in subG1 phase are plotted in the part of the histogram preceding the G1 peak (generally X<200) and cells in S phase are enclosed in the area between the G1 and G2 peaks.
On this graphic, subG1, G1, S and G2/M phases of the cell cycle can thus be defined.
as §1

With `COc1cc(NC(=S)NC(=O)/C=C/c2ccco2)ccc1-c1cc2ccccc2oc1=O` [Compound 01, (2E)-3-(2-furyl)-N-({[3-methoxy-4-(2-oxo-2H-chromen-3-yl)phenyl]amino}carbonothioyl)acrylamide], in data set [1] (48 h), the viability at 48 h, 0.5 µM came to 25%. Also, the viability at 72 h, 0.5 µM in data set [1] (72 h) came to 6%. In addition, the “Cell cycle profile - 72 h” value in the data set on Jurkat was “Strong sub-G1”.
